Measurements: US20120094998A1, “Oligomer-Protein Tyrosine Kinase Inhibitor Conjugates” (Nektar Therapeutics, priority 2009, published 2012)
Like-named read-outs stand apart in the source and are kept apart here.

How the values were obtained:
Type in all cases: biochemical
TSSK1 = target: T1, TSSK1 (Homo sapiens, UniProt Q9BXA7); experiment: Activity against various protein tyrosine kinases: TSSK1; settings: for inhibition at 0.01 µM: 10 nM
T1 sequence (Q9BXA7 1-367): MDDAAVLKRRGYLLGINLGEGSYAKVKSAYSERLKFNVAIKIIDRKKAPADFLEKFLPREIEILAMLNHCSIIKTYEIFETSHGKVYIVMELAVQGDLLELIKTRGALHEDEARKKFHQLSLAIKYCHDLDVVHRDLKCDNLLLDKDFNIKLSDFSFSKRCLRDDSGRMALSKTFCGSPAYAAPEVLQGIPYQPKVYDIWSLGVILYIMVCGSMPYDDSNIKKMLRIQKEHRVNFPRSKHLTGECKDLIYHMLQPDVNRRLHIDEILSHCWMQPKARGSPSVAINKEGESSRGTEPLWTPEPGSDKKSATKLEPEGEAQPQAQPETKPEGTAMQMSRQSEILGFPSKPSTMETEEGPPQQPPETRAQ
Procedure: (§1) Using techniques know those of ordinary skill in the art, compounds were tested for activity against various protein tyrosine kinases.

CHK2 = CHK2 (Homo sapiens, UniProt O96017); experiment: Activity against various protein tyrosine kinases: CHK2; settings: for inhibition at 0.01 µM: 10 nM
Procedure: as §1

cKIT = cKIT (Homo sapiens, UniProt P10721); experiment: Activity against various protein tyrosine kinases: CKIT; design: purchased MILLIPORE 14-559; settings: for inhibition at 0.01 µM: 10 nM
Procedure: as §1

CaMKII (beta) = CaMKII (beta) (Homo sapiens, UniProt Q13554); experiment: Activity against various protein tyrosine kinases: CaMKII (beta); settings: for inhibition at 0.01 µM: 10 nM
Procedure: as §1

GSK3b = GSK3b (Homo sapiens, UniProt P49841); experiment: Activity against various protein tyrosine kinases: GSK3b; settings: for inhibition at 0.01 µM: 10 nM
Procedure: as §1

FGFR2 (N549H) = FGFR2 (N549H) (Homo sapiens, UniProt P21802, N549H); experiment: Activity against various protein tyrosine kinases: FGFR2 (N549H); settings: for inhibition at 0.01 µM: 10 nM
Procedure: as §1

TSSK2 = target: T2, TSSK2 (Homo sapiens, UniProt Q96PF2); experiment: Activity against various protein tyrosine kinases: TSSK2; settings: for inhibition at 0.01 µM: 10 nM
T2 sequence (Q96PF2 1-358): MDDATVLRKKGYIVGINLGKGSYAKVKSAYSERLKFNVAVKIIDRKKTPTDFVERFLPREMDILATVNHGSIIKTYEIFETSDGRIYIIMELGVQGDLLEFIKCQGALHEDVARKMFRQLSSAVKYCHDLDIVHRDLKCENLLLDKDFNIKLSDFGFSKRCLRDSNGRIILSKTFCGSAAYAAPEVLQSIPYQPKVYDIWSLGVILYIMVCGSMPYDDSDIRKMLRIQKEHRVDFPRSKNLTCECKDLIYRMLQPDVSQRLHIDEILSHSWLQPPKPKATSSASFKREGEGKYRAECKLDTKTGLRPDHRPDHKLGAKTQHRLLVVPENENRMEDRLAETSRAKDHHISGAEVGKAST
Procedure: as §1

AKT1 = AKT1 (Homo sapiens, UniProt P31749); experiment: Activity against various protein tyrosine kinases: AKT1; settings: for inhibition at 0.01 µM: 10 nM
Procedure: as §1

FGFR2 = FGFR2 (Homo sapiens, UniProt P21802); experiment: Activity against various protein tyrosine kinases: FGFR2; settings: for inhibition at 0.01 µM: 10 nM
Procedure: as §1

CK1d = CK1d (Homo sapiens, UniProt P48730); experiment: Activity against various protein tyrosine kinases: CK1d; settings: for inhibition at 0.01 µM: 10 nM
Procedure: as §1

AurB = AurB (Homo sapiens, UniProt Q96GD4); experiment: Activity against various protein tyrosine kinases: AurB; settings: for inhibition at 1 µM: read-out: % Inhibition at 1 μM; for inhibition at 0.01 µM: 10 nM
Procedure: as §1

CaMKII (gamma) = CaMKII (gamma) (Homo sapiens, UniProt Q13555); experiment: Activity against various protein tyrosine kinases: CaMKII (gamma); settings: for inhibition at 0.01 µM: 10 nM
Procedure: as §1

Erk2 = Erk2 (Homo sapiens, UniProt P28482); experiment: Activity against various protein tyrosine kinases: Erk2; settings: for inhibition at 0.01 µM: 10 nM
Procedure: as §1

AKT2 = AKT2 (Homo sapiens, UniProt P31751); experiment: Activity against various protein tyrosine kinases: AKT2; settings: for inhibition at 0.01 µM: 10 nM
Procedure: as §1

PKCz = target: T3, PKCz (Homo sapiens, UniProt Q05513); experiment: Activity against various protein tyrosine kinases: PKCz; settings: for inhibition at 0.01 µM: 10 nM
T3 sequence (Q05513 1-592): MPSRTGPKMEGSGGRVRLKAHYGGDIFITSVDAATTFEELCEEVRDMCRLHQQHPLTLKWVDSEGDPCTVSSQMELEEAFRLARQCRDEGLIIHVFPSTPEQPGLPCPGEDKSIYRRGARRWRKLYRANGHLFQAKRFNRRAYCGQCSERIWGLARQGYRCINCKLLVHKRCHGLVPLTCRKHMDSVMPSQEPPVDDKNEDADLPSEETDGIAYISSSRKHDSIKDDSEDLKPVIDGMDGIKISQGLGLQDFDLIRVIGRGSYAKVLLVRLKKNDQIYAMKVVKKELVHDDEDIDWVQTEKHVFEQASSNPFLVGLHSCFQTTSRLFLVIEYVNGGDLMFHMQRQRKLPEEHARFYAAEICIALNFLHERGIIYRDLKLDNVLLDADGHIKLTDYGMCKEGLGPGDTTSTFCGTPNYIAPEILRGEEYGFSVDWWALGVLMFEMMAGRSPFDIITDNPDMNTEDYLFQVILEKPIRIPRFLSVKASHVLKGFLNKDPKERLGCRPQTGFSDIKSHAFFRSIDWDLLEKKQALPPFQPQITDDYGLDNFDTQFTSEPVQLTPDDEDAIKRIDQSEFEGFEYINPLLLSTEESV
Procedure: as §1

Sequence of CaMKII (beta) (Q13554 whole entry): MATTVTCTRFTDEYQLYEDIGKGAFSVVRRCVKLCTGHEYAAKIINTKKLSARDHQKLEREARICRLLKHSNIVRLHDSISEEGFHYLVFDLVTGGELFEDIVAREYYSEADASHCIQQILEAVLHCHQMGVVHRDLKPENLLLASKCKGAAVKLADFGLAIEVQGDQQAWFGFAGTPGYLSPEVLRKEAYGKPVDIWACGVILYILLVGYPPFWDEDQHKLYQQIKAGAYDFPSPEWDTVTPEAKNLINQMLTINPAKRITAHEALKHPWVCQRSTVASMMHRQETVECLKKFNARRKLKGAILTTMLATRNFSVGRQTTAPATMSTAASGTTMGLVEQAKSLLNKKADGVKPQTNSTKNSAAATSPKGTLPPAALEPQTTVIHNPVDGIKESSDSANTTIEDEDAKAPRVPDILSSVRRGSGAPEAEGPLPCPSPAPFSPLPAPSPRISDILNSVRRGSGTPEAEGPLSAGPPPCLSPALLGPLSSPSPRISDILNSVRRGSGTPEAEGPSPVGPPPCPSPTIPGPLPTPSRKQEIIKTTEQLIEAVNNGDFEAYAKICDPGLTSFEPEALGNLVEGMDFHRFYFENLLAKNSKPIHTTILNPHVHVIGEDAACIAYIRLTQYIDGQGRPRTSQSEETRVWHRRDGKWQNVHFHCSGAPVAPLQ
Sequence of AKT1 (P31749 whole entry, species assumed): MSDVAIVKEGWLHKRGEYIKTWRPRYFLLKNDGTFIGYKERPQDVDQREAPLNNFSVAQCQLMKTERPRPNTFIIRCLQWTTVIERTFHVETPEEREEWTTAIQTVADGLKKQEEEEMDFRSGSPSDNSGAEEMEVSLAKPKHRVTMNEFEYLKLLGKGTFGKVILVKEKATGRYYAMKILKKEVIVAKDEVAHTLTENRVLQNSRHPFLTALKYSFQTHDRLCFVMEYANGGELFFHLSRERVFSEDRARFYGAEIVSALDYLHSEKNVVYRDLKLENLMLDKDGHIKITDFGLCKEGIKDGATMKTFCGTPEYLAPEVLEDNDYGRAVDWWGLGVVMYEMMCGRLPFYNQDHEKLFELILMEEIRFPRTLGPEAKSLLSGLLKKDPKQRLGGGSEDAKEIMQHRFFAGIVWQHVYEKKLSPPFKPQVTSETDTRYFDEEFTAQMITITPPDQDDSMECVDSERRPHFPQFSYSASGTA
Sequence of AKT2 (P31751 whole entry, species assumed): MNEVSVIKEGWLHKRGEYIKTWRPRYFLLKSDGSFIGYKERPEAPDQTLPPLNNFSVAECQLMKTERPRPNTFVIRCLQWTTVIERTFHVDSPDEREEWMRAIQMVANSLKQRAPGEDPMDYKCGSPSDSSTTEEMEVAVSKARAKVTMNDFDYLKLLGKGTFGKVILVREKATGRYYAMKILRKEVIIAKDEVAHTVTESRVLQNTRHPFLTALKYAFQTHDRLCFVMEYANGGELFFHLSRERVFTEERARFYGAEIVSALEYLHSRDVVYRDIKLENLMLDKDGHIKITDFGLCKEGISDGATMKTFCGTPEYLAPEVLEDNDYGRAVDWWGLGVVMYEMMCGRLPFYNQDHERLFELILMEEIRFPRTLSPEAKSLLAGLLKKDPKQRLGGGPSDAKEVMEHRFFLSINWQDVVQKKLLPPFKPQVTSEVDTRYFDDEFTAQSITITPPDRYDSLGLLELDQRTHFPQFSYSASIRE
Sequence of CHK2 (O96017 whole entry, species assumed): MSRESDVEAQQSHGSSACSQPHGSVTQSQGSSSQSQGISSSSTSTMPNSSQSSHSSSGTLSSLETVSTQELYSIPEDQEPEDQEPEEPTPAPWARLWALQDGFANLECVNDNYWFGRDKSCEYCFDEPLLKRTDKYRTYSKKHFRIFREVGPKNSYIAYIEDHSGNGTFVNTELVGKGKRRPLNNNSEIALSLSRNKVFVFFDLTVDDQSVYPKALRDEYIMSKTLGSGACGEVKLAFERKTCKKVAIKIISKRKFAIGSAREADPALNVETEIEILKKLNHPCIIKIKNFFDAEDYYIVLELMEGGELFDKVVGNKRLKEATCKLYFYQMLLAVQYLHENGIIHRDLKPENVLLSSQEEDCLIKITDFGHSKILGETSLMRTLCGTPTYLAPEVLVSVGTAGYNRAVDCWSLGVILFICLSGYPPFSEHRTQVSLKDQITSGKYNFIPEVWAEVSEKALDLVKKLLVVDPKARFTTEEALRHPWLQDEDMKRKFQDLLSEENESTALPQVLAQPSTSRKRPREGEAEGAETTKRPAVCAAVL
Sequence of GSK3b (P49841 whole entry, species assumed): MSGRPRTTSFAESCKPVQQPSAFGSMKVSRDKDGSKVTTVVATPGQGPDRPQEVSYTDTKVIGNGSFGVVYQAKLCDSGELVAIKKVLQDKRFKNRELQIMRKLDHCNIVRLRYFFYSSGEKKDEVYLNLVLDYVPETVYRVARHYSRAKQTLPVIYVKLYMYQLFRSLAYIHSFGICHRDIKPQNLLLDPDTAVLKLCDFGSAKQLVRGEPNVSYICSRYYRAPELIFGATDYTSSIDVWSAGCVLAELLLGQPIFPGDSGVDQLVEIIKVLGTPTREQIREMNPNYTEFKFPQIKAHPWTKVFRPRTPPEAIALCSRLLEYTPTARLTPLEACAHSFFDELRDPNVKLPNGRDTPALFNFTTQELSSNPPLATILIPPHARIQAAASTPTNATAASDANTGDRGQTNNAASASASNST
Sequence of Erk2 (P28482 whole entry, species assumed): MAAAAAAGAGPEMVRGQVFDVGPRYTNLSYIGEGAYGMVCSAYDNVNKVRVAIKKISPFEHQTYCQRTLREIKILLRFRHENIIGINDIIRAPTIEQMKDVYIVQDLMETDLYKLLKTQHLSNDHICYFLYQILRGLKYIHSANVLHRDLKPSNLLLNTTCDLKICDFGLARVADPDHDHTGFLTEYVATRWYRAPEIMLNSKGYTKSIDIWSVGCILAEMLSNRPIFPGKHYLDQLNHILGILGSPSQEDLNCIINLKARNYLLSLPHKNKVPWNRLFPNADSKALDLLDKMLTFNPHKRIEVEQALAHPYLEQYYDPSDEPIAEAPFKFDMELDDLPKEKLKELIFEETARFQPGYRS
Sequence of FGFR2 (P21802 22-821, species assumed): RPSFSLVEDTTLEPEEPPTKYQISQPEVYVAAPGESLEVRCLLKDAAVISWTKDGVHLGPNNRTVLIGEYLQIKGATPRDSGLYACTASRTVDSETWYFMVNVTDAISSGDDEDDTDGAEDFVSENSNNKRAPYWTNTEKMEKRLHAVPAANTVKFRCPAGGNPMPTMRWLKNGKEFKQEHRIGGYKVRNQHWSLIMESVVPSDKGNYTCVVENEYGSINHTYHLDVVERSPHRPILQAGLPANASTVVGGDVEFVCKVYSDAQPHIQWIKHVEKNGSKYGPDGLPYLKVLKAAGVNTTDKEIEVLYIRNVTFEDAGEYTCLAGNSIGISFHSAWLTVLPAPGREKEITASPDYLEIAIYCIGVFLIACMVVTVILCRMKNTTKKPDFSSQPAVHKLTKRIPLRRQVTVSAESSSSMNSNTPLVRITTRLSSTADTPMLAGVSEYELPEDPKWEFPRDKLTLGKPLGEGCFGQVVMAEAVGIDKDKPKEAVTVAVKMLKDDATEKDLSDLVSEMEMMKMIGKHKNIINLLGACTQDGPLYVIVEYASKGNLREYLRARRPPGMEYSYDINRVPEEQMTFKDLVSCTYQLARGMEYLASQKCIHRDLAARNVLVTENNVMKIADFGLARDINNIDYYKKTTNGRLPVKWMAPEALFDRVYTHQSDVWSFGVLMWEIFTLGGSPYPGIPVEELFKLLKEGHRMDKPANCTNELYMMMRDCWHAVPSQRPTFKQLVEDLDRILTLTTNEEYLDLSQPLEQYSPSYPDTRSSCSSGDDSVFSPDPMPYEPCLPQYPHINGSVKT
Sequence of AurB (Q96GD4 whole entry): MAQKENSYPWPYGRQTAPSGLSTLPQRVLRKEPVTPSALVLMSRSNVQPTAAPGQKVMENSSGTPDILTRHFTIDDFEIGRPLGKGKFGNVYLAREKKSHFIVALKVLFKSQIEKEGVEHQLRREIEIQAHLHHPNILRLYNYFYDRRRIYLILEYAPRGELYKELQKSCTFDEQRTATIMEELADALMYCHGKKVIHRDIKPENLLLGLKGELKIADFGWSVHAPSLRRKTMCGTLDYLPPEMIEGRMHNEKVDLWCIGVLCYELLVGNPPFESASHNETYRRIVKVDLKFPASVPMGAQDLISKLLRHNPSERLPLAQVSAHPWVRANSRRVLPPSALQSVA
Sequence of FGFR2 (N549H) (P21802 22-821 N549H, species assumed): as the sequence (P21802 22-821, species assumed) above, with N528H counted along it
Sequence of CK1d (P48730 whole entry): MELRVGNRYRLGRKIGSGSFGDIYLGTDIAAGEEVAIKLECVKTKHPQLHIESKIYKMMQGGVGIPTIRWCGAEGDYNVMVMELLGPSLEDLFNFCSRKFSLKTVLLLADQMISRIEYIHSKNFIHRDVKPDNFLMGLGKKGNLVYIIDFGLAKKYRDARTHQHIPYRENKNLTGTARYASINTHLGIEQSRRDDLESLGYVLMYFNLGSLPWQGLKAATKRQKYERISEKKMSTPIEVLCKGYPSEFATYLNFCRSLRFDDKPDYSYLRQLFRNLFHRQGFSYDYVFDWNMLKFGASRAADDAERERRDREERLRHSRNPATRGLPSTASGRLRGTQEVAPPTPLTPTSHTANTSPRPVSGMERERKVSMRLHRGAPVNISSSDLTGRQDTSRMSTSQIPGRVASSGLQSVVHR

Row | SMILES | inhibition at 0.01 µM (TSSK1) | inhibition at 1 µM (TSSK1) | inhibition at 0.01 µM (CHK2) | inhibition at 0.01 µM (cKIT) | inhibition at 1 µM (CaMKII (beta)) | inhibition at 0.01 µM (GSK3b) | inhibition at 0.01 µM (FGFR2 (N549H)) | inhibition at 1 µM (FGFR2 (N549H)) | inhibition at 0.01 µM (TSSK2) | inhibition at 0.01 µM (AKT1) | inhibition at 1 µM (AKT1) | inhibition at 0.01 µM (FGFR2) | inhibition at 1 µM (FGFR2) | inhibition at 0.01 µM (CK1d) | inhibition at 0.01 µM (CaMKII (gamma)) | inhibition at 0.01 µM (Erk2) | inhibition at 1 µM (AKT2) | inhibition at 0.01 µM (PKCz) | inhibition at 1 µM (CHK2) | inhibition at 1 µM (cKIT) | further results
1 | Cc1nc(Nc2ncc(C(=O)Nc3c(C)cccc3Cl)s2)cc(N2CCN(CCO)CC2)n1 [Dasatinib, reference compound] | -5% | -6% | 3% | 30% | 3% | 7% | 6% | 71% | -3% | -6% | -2% | 3% | 36% | 1% | 5% | -2% | -2% | 2% |  |  | inhibition at 1 µM (AurB): 6%
2 | COCCOCCOCCNC(=O)OCCN1CCN(c2cc(Nc3ncc(C(=O)Nc4c(C)cccc4Cl)s3)nc(C)n2)CC1 [mPEG3-NHCOO-Dasatinib] | -1% | 0% | 1% | 34% | 2% | 4% | 7% | 75% | -1% | 7% | 0% | -2% | 38% | 1% | 2% | 6% | 7% | -12% | 11% | 100% | inhibition at 0.01 µM (CaMKII (beta)): 1%; inhibition at 1 µM (GSK3b): 1%; inhibition at 1 µM (TSSK2): 0%; inhibition at 1 µM (CK1d): 3%; inhibition at 0.01 µM (AurB; AurB): -1%; inhibition at 1 µM (AurB; AurB, 1 μM): 4%; inhibition at 1 µM (CaMKII (gamma)): 2%; inhibition at 1 µM (Erk2): 11%; inhibition at 0.01 µM (AKT2): 9%; inhibition at 1 µM (PKCz): -13%
3 | COCCOCCOCCOCCOCCOCCOCCNC(=O)OCCN1CCN(c2cc(Nc3ncc(C(=O)Nc4c(C)cccc4Cl)s3)nc(C)n2)CC1 [mPEG7-NHCOO-Dasatinib] | -3% | -5% | 2% | 34% | 2% | 3% | 5% | 63% | 3% | -1% | 0% | 5% | 35% | 0% | 6% | 3% | 3% | 5% | 1% | 100% | inhibition at 0.01 µM (CaMKII (beta)): 1%; inhibition at 1 µM (GSK3b): 2%; inhibition at 1 µM (TSSK2): -2%; inhibition at 1 µM (CK1d): 9%; inhibition at 0.01 µM (AurB; AurB): 0%; inhibition at 1 µM (AurB; AurB, 1 μM): 4%; inhibition at 1 µM (CaMKII (gamma)): 3%; inhibition at 1 µM (Erk2): 2%; inhibition at 0.01 µM (AKT2): 3%; inhibition at 1 µM (PKCz): -9%
